Experiment [1] deals with T1, recombinant human 5-LOX (Homo sapiens, UniProt P09917).
T1 sequence (P09917 1-674): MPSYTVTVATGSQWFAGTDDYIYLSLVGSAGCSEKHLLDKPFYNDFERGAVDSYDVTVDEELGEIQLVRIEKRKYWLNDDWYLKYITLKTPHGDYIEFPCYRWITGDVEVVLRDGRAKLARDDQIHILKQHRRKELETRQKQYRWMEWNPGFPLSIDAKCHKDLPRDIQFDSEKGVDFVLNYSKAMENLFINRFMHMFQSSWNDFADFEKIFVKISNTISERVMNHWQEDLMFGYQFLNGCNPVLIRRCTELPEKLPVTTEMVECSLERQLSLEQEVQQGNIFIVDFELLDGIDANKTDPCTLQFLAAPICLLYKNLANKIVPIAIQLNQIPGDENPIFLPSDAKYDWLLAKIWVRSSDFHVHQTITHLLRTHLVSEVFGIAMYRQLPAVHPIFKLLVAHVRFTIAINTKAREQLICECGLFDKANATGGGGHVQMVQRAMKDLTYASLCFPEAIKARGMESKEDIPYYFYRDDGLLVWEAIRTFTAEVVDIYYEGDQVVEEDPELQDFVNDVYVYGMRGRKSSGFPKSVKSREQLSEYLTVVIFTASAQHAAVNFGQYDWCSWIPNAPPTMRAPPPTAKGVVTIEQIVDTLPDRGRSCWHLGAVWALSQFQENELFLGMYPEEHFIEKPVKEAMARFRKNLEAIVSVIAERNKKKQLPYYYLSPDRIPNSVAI
The experiment can be described thus: Fluorescence Intensity 5-LOX Enzyme Assay. It counts as biochemical. The note with it: crude lysate of recombinant human 5-LOX; highest inhibitor concentration tested typically 25 μM. A digest of the protocol:
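Crude lysate enzyme with H2DCFDA 10 μM (5 min dye pre-incubation), inhibitor pre-incubated 10 min; reaction started with 3 μM arachidonic acid plus 10 μM ATP in Tris pH 7.5, CaCl2, EDTA, 20 min at room temperature, acetonitrile stop. Fluorescein fluorescence; 7-point 4-parameter IC50, top 25 μM, 2.5% DMSO.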

Experiment [2] has as its system human whole blood (leukotriene and prostaglandin levels). The experiment can be described thus: Eicosanoid production from human whole blood. In kind it is cell-based. Conditions: human whole blood stimulated with calcium ionophore A23187 and arachidonic acid; ELISA. Put shortly: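 Pooled heparinized whole blood from healthy or asthmatic donors was preincubated with compound for 10 min at room temperature, with 2.5% DMSO final. It was stimulated with calcium ionophore A23187 plus arachidonic acid (30 μM) in 60% ethanol for 15 min at 37 °C. Plasma leukotrienes and prostaglandins were measured by ELISA.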
On the technique in general: An ELISA detects its analyte on a solid surface through an enzyme-linked reagent.

Experiment [3] concerns eicosanoid production in the rat air pouch. As to the kind of experiment: Carrageenan-induced eicosanoid production in the rat air pouch. It counts as in vivo. The note with it: po, male Lewis rats, 3 mpk by gavage 1 hour prior to carrageenan. Here is the method:
Carrageenan-Induced Eicosanoid Production in the Rat Air Pouch:
Male Lewis rats (175-200 g), Charles River Laboratories, Wilmington, Mass.) were used in the study. Air pouches were produced by subcutaneous injection of 20 ml of sterile air into the intrascapular area of the back. Pouches were allowed to develop for 1 day. Animals (6 per group) were fasted with free access to water for 16 to 24 hours prior to drug administration. Drugs or vehicle were administered by gavage 1 hour prior to injection of 2 ml of a 1% suspension of carrageenan (FMC BioPolymer, Philadelphia, Pa., Cat. # GP209-NF) dissolved in saline into the pouch. At 3 hours post-carrageenan injection, 1 ml of 50 μg/ml calcium ionophore in saline (A23187, Sigma Chemical Co, St. Louis, M, Cat. #C-7522) was injected into the pouch and the pouch fluid collected 10 minutes later by lavage. The fluid was centrifuged at 3500 rpm for 10 minutes at 4° C., and the supernatants were collected for analysis. Leukotriene and prostaglandin levels were quantitated by ELISA according to the manufacturer's directions (Cayman Chemical Company, Ann Arbor, Mi).

As to `C[C@H]1C[C@@](C(N)=O)(c2ccc(F)c(Sc3ccc(-c4ccnn4C)cc3)c2)CCO1` [Example 23, (2S,4R)-4-(4-fluoro-3-(4-(1-methyl-1H-pyrazol-5-yl)phenylthio)phenyl)-2-methyl-tetrahydro-2H-pyran-4-carboxamide], the 50% inhibitory concentration (IC50) (in general, the midpoint of a concentration-inhibition curve) in experiment [1] came out at 39.8 nM; in experiment [2], 314 nM. For the same molecule, the inhibition (commonly the share of the control response that was lost under treatment) at 3 mg/kg in experiment [3] came to 76%.

Consider `C[C@H]1C[C@@](C#N)(c2ccc(F)c(Sc3ccc(-c4ccnn4C)cc3)c2)CCO1` [Example 24, (2S,4R)-4-(4-fluoro-4-(4-(1-methyl-1H-pyrazol-5-yl)phenylthio)phenyl)-2-methyl-tetrahydro-2H-pyran-4-carbonitrile], for which the IC50 turned out to be 692 nM in experiment [1] and 150 nM in experiment [2]. The same molecule registered an inhibition at 3 mg/kg in experiment [3] of 32%.

For `C[C@H]1C[C@@](C(N)=O)(c2cc(F)cc(Sc3ccc(-c4ccnn4C)cc3)c2)CCO1` [Example 27, (2S,4R)-4-(3-fluoro-5-(4-(1-methyl-1H-pyrazol-5-yl)phenylthio)phenyl)-2-methyl-tetrahydro-2H-pyran-4-carboxamide], the values for the IC50 in experiment [1] and in experiment [2] were 19.8 nM and 138 nM, respectively. Moreover, the inhibition at 3 mg/kg in experiment [3] was found to be 100%.

On to `C[C@H]1C[C@@](C(N)=O)(c2ccc(F)c(Sc3ccc(-c4ccnn4C)cc3)c2F)CCO1` [Example 28, (2S,4R)-4-(2,4-difluoro-3-(4-(1-methyl-1H-pyrazol-5-yl)phenylthio)phenyl)-2-methyl-tetrahydro-2H-pyran-4-carboxamide], for which the IC50 in experiment [1] is 21 nM; in experiment [2] it was 227 nM. In addition, in experiment [3], the inhibition at 3 mg/kg amounted to 100%.

For the molecule `C[C@H]1C[C@@](C(N)=O)(c2cccc(Sc3ccc(-c4ccnn4C)cc3)c2F)CCO1` [Example 29, (2S,4R)-4-(2-fluoro-3-(4-(1-methyl-1H-pyrazol-5-yl)phenylthio)phenyl)-2-methyl-tetrahydro-2H-pyran-4-carboxamide], the IC50 amounted to 14.9 nM in experiment [1] and 265 nM in experiment [2]. In experiment [3], this molecule yielded an inhibition at 3 mg/kg of 100%.

In the case of `Cn1nccc1Cc1ccc(Sc2cccc(C3(C(N)=O)CCOCC3)c2)cc1F` [Example 33, 4-{3-[3-Fluoro-4-(2-methyl-2H-pyrazol-3-ylmethyl)phenylsulfanyl]-phenyl}-tetrahydro-pyran-4-carboxylic acid amide], the IC50 in experiment [1] amounted to 110 nM; in experiment [2] it was 492 nM. This molecule also yielded an inhibition at 3 mg/kg in experiment [3] of 76%.

Take `Cn1nccc1C(=O)c1ccc(Sc2cccc(C3(C(N)=O)CCOCC3)c2)cc1` [Example 34, 4-[3-({4-[(1-methyl-1H-pyrazol-5-yl)carbonyl]phenyl}thio)phenyl]tetrahydro-2H-pyran-4-carboxamide]: the IC50 in experiment [1] amounted to 40.2 nM; in experiment [2], 549 nM. The molecule further yielded an inhibition at 3 mg/kg in experiment [3] of 99.5%.

Turning to `C[C@H]1C[C@@](C(N)=O)(c2cccc(Sc3ccc(C(=O)c4ccnn4C)cc3)c2)CCO1` [Example 39, (2S,4R)-2-methyl-4-(3-(4-(1-methyl-1H-pyrazole-5-carbonyl)phenylthio)phenyl)-tetrahydro-2H-pyran-4-carboxamide], the results for the 50% inhibitory concentration (IC50) in experiment [1] and in experiment [2] were 23.8 nM and 407 nM, respectively. In experiment [3], this molecule showed an inhibition at 3 mg/kg of 66%.

As for `C[C@H]1C[C@@](C(N)=O)(c2cccc(Sc3ccc(C(=O)c4ccnn4C)cc3)c2F)CCO1` [Example 40], the IC50 in experiment [1] came out at 21.9 nM; in experiment [2], 407 nM. This molecule also came in with an inhibition at 3 mg/kg in experiment [3] of 96%.

On to `Cn1nccc1Oc1ncc(Sc2cccc(C3(C(N)=O)CCOCC3)c2)cc1Cl` [Example 41, 4-(3-(5-chloro-6-(1-methyl-1H-pyrazol-5-yloxy)pyridin-3-ylthio)phenyl)-tetrahydro-2H-pyran-4-carboxamide], for which the IC50 in experiment [1] was 277 nM; in experiment [2] it was 405 nM. In addition, 3 mg/kg produced 98% inhibition in experiment [3].

As to `Cn1nccc1-c1ccc(Sc2cccc(C3(C#N)CCOCC3)c2)cc1F` [Example 46, 4-(3-{[3-fluoro-4-(1-methyl-1H-pyrazol-5-yl)phenyl]thio}phenyl)tetrahydro-2H-pyran-4-carbonitrile], the concentration for half-maximal inhibition (IC50) in experiment [1] was determined as 4130 nM; in experiment [2], 539 nM. Further, the inhibition at 3 mg/kg in experiment [3] amounted to 0%.

`Cn1nccc1-c1ccc(Sc2cccc(C3(C#N)CCOCC3)c2F)cc1` [Example 48, 4-(2-fluoro-3-{[4-(1-methyl-1H-pyrazol-6-yl)phenyl]thio}phenyl)tetrahydro-2H-pyran-4-carbonitrile]: the IC50 in experiment [1] came out at 387 nM; in experiment [2], 124 nM. In experiment [3], this molecule gave an inhibition at 3 mg/kg of 38%.

Turning to `Cn1nccc1Oc1ccc(Sc2cccc(C3(C(N)=O)CCOCC3)c2)cc1C#N` [Example 51, 4-[3-({3-cyano-4-[(1-methyl-1H-pyrazol-5-yl)oxy]phenyl}thio)phenyl]tetrahydro-2H-pyran-4-carboxamide], the IC50 in experiment [1] was 554 nM; in experiment [2], 203 nM. Moreover, 3 mg/kg produced 77% inhibition in experiment [3].

With `C[C@H]1C[C@@](C(N)=O)(c2cccc(Sc3cnc(Oc4ccnn4C)c(Cl)c3)c2F)CCO1` [Example 52, (2S,4R)-4-(3-(5-chloro-6-(1-methyl-1H-pyrazol-5-yloxy)pyridin-3-ylthio)-2-fluorophenyl)-2-methyl-tetrahydro-2H-pyran-4-carboxamide], the IC50 in experiment [1] turned out to be 20.7 nM; in experiment [2], 272 nM. For the same molecule, in experiment [3], the inhibition at 3 mg/kg was 100%.

For `C[C@H]1C[C@@](C#N)(c2cccc(Sc3ccc(C(=O)c4ccnn4C)cc3)c2F)CCO1` [Example 53, (2S,4R)+(2-fluoro-3-(4-(1-methyl-1H-pyrazole-5-carbonyl)phenylthio)phenyl)-2-methyl-tetrahydro-2H-pyran-4-carbonitrile], the IC50 in experiment [1] worked out at 65.7 nM; in experiment [2], 350 nM. In experiment [3], the inhibition at 3 mg/kg amounted to 94%.

As to `CNC(=O)C1(c2cccc(Sc3ccc(-c4ccnn4C)cc3)c2Cl)CCOCC1` [Example 55, 4-(2-chloro-3-{[4-(1-methyl-1H-pyrazol-5-yl)phenyl]thio}phenyl)-N-methyltetrahydro-2H-pyran-4-carboxamide], the IC50 in experiment [1] stood at 357 nM; in experiment [2], 1240 nM. Moreover, at 3 mg/kg the inhibition in experiment [3] was 64%.

For `Cn1ncc(Cl)c1-c1ccc(Sc2cccc(C3(C(N)=O)CCOCC3)c2)cc1F` [Example 56, 4-(3-{[4-(4-chloro-1-methyl-1H-pyrazol-5-yl)-3-fluorophenyl]thio}phenyl)tetrahydro-2H-pyran-4-carboxamide], the IC50 was found to be 43.2 nM in experiment [1] and 472 nM in experiment [2]. This molecule also displayed an inhibition at 3 mg/kg in experiment [3] of 62%.

Consider `Cn1ncc(Cl)c1-c1ccc(Sc2cccc(C3(C(N)=O)CCOCC3)c2)cc1` [Example 57, 4-(3-{[4-(4-chloro-1-methyl-1H-pyrazol-5-yl)phenyl]thio}phenyl)tetrahydro-2H-pyran-4-carboxamide], for which the IC50 in experiment [1] is 85.1 nM; in experiment [2] it was 514 nM. The same molecule showed an inhibition at 3 mg/kg in experiment [3] of 62%.

For `Cn1nccc1C(=O)c1ccc(Sc2cccc(C3(C(N)=O)CCOCC3)c2)cc1F` [Example 58, 4-[3-({3-fluoro-4-[(1-methyl-1H-pyrazol-5-yl)carbonyl]phenyl}thio)phenyl]tetrahydro-2H-pyran-4-carboxamide], the IC50 worked out at 156 nM in experiment [1] and 1140 nM in experiment [2]. This molecule also gave an inhibition at 3 mg/kg in experiment [3] of 0%.

(Values after patent US8097733B2, “Pyrazole derivatives as 5-LO-inhibitors” (Pfizer Inc., priority 2007, dated 2012).)
